Assay results published in patent US9988371B2, “Benzimidazole analogues and related methods” (The Arizona Board of Regents, on Behalf of the University …, priority 2014, dated 2018).

Columns and labels:
[1] = target: T1, RET/C634R-V804M (Homo sapiens, UniProt P07949, C634R/V804M); assay: RET auto-phosphorylation immunoblot in transfected HEK293 cells; type: cell-based; details: 1 nM, 2 hrs, cells expressing RET/C634R-V804M
T1 construct: expressed in transfected cells; host or cells: HEK293
Text: FIG. 2: Photographs of blots showing inhibition of phosphorylation of gate-keeper RET point mutant and rearranged RET oncoproteins by Pz-1 or vehicle (NT: not treated). HEK293 cells were transiently transfected with vectors expressing RET/C634R-V804M mutant (V804 is the gate-keeper RET residue), or RET/PTC1 (CCDC6-RET, found in papillary thyroid carcinoma and lung adenocarcinoma), RET/PTC3 (NCOA4-RET, found in papillary thyroid carcinoma and lung adenocarcinoma), or KIF5B-RET (found in lung adenocarcinoma). After 36 hr from transfection, cells were serum-starved for 12 hr and then treated for 2 hr with indicated concentrations of Pz-1. 50 μg of total cell lysates were subjected to immunoblotting with anti-phospho-Y1062 (αp1062) and anti-phospho-Y905 (αp905) RET antibodies. The blots were normalized using anti-RET (αRET) antibody.
The inhibition of RET auto-phosphorylation by Pz-1 was measured in several different cell lines including NIH3T3 fibroblasts expressing RET/C634Y or RET/M918T, TT expressing RET/C634W (MTC), Nthy-ory-3-1 (thyroid, non-transformed with RET; negative control), HEK293/RET/PTC1 (CCDC6-RET that can be found in PTC & lung cancer), HEK293/RET-KIF5B (that can be found in lung cancer), HEK293/RET/PTC3 (NCOA4-RET, that can be found in PTC & lung cancer), and HEK293 transfected with RET/C634R-V804M (FIGS. 1-3). […]

[2] = system: Ba/F3 cells transfected by RET/PTC3 (NCOA4-RET); assay: IL-3-independent proliferation of Ba/F3 RET/PTC3 cells; type: cell-based, murine; details: Mus musculus, BaF3
Method: FIG. 6: Activity of Pz-1 on NCOA4-RET oncogene-driven IL-3-independent proliferation of murine Ba/F3 cells. […] Ba/F3 and Ba/F3 NCOA4-RET cells were incubated with vehicle (NT) or the indicated concentration of Pz-1 in complete medium and counted at different time points. Data are the mean±SD of one experiment performed in triplicate. Murine interleukin-3 (IL-3) dependent pro-B Ba/F3 cells were from ATCC. Ba/F3 cells stably expressing NCOA4-RET (RET/PTC3) protein were generated by transfecting long isoform (RET-51) of NCOA4-RET by electroporation. Parental and Ba/F3-NCOA4-RET cells were cultured in RPMI 1640 with 10% FBS; parental cells required also 10 ng/ml IL-3. IC50 doses (with Confidence Intervals) are indicated.
Nthy-ory-3-1 and TTcells were seeded in 60-mm dishes. Cells were kept in 2% (Nthy-ori-3-1) or 10% (TT) fetal calf serum. One day after plating, different concentrations of Pz-1 or vehicle were added to the medium and changed every 2-3 days. Cells were counted every 2-3 days. […] Parental and RET/PTC-expressing Ba/F3 were kept in 10% fetal calf serum in 6-multi wells and counted every day for 4 consecutive days, changing media every 2 days. […] IC50 doses were calculated through a curve fitting analysis from the last day of growth curves using the PRISM software program (Graphpad Software Inc). […]

[3] = target: T2, hERG (Homo sapiens, UniProt Q12809); assay: patch clamp hERG assay; type: cell-based; details: patch clamp (GenScript)
T2 construct: purchased GenScript
Method: (§1) Pz-1 was minimally active in the patch clamp hERG assay, with an IC50 for the hERG assay of 10 μM (GenScript).

[4] = target: T3, hERG (relative to RET) (Homo sapiens, UniProt Q12809); assay: patch clamp hERG assay; type: cell-based; details: human; read-out: selectivity for RET over hERG
T3 construct: purchased GenScript
Method: as §1

T2 sequence (Q12809 whole entry): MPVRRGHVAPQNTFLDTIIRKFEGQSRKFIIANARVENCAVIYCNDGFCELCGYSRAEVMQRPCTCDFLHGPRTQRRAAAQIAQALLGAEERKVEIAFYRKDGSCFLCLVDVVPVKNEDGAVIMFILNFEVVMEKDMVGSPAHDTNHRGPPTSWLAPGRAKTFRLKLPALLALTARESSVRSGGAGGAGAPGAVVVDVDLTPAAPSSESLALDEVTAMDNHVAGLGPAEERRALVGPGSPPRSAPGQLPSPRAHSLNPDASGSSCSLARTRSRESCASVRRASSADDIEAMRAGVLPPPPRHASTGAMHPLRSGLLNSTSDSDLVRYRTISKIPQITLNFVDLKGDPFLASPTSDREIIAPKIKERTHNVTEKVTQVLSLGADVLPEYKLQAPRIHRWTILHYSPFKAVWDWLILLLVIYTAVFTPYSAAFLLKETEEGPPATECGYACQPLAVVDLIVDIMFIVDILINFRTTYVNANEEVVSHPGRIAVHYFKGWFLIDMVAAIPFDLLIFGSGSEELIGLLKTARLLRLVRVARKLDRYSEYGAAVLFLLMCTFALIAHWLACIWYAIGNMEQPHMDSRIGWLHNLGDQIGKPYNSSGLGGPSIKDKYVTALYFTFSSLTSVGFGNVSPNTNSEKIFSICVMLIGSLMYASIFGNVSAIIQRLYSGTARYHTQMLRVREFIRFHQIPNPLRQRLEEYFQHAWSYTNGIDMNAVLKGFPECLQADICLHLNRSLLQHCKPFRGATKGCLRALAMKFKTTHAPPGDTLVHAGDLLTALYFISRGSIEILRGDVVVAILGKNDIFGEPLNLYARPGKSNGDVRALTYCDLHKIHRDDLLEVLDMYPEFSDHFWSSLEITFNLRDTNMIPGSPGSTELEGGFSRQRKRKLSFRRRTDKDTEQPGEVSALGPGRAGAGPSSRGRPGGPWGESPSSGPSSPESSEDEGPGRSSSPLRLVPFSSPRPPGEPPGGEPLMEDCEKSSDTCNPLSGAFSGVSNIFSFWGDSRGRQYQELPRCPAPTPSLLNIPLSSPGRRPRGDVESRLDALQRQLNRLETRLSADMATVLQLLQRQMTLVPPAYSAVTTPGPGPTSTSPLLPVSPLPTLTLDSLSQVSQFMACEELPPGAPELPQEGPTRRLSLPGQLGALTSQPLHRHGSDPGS
T3 sequence (Q12809 whole entry): as above
T1 sequence (P07949 29-1072 isoform P07949-2 C634R/V804M limits assumed): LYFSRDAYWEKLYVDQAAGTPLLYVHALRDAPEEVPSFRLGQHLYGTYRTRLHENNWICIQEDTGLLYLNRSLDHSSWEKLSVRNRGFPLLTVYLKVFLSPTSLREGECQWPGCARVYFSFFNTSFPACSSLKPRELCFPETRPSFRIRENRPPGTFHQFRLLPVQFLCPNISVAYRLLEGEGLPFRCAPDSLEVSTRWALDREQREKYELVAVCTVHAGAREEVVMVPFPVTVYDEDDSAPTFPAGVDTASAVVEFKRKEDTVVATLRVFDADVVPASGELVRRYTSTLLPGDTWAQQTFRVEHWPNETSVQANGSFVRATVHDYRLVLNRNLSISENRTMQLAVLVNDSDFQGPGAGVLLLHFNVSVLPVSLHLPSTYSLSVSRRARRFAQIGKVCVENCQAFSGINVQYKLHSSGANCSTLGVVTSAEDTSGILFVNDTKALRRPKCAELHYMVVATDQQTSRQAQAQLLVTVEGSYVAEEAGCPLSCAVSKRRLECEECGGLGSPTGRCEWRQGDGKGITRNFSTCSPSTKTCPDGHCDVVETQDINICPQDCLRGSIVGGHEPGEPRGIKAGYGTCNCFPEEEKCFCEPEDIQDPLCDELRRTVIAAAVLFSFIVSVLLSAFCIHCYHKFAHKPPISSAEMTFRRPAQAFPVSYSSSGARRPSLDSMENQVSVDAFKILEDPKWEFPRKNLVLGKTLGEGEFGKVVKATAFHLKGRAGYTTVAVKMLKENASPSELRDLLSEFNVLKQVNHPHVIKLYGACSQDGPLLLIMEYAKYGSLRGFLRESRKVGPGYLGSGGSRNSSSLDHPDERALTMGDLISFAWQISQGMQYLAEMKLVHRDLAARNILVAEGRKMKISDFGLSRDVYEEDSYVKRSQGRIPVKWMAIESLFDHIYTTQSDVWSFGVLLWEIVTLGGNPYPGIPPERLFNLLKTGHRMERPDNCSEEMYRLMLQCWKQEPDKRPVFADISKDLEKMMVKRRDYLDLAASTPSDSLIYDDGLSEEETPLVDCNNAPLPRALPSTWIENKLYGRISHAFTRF

SMILES: Cn1cc(-c2ccc3c(c2)ncn3-c2ccc(CC(=O)Nc3cc(C(C)(C)C)on3)cc2)cn1 [Pz-1, N-(5-(tert-butyl)isoxazol-3-yl)-2-(4-(5-(1-methyl-1H-pyrazol-4-yl)-1H-benzo[d]imidazol-1-yl)phenyl)acetamide]
- inhibition of pRET [1]: strongly inhibited
- IC50 [2]: 0.00034 µM
- IC50 [3]: 10 µM
- selectivity ratio [4]: 10000
